This is an account of results in ChEMBL document CHEMBL4308876, “Isolation and structure determination of a new lasso peptide specialicin based on genome mining” (Bioorg Med Chem, 2018).

One assay concerns Bacillus subtilis. Briefly: Antibacterial activity against Bacillus subtilis after 24 hrs. In kind it is functional.
The test system of another assay is Micrococcus luteus. Briefly: Antibacterial activity against Micrococcus luteus after 24 hrs. In kind it is functional.
Another assay concerns Escherichia coli. Briefly: Antibacterial activity against Escherichia coli after 24 hrs. In kind it is functional.
A further assay deals with Staphylococcus aureus. As to the kind of experiment: Antibacterial activity against Staphylococcus aureus after 24 hrs. It counts as functional.
A further assay has as its system Pseudomonas aeruginosa. Briefly: Antibacterial activity against Pseudomonas aeruginosa after 24 hrs. In kind it is functional.
Assay [1] relates to Human immunodeficiency virus 1. Briefly: Antiviral activity against HIV-1 NL4-3 infected in human PM1/CCR5 cells after 7 days by WST-8 assay. In kind it is functional, organism-based. To be noted: Human immunodeficiency virus 1, NL4-3, PM1/CCR5, 168 h. (In general: Tetrazolium assays rely on reduction of a dye to a coloured formazan, in cell work by metabolically active cells.)

Values after ≈ are worked out from the molar mass of the structure shown. Bridge positions count the residues as written; N and C are the ends. Peptide text beside a SMILES is read from it.

As usually defined, the MIC is the lowest concentration that inhibits growth of the organism. Low readings indicate inhibition by little substance, high ones a need for much substance. In the case of `CN(C)[C@@H]1C(O)=C(C(N)=O)C(=O)[C@@]2(O)C(O)=C3C(=O)c4c(O)cccc4[C@@](C)(O)[C@H]3C[C@@H]12` [TETRACYCLINE], the MIC was 1 µg/mL (≈ 2.25 µM) in the assay with Bacillus subtilis; 0.25 µg/mL (≈ 0.563 µM) in the assay with Micrococcus luteus; 2 µg/mL (≈ 4.5 µM) in the assay on Escherichia coli; 0.125 µg/mL (≈ 0.281 µM) with Staphylococcus aureus; 4 µg/mL (≈ 9 µM) against Pseudomonas aeruginosa.
As a reminder, the IC50 is the point on the concentration scale where inhibition reaches its midpoint. As to `CC(C)C[C@@H]1NC(=O)[C@@H]2CSSC[C@@H]3NC(=O)CNC(=O)[C@H](C)NC(=O)[C@H](Cc4ccccc4)NC(=O)[C@H](CC(=O)N2)NC(=O)[C@H](C(C)C)NC(=O)[C@H](CSSC[C@@H](C(=O)N[C@@H](Cc2ccccc2)C(=O)N[C@@H](Cc2c[nH]c4ccccc24)C(=O)O)NC(=O)[C@H](C(C)C)NC(=O)[C@H](C(C)C)NC(=O)[C@H](C)NC(=O)[C@H](Cc2ccc(O)cc2)NC(=O)CNC3=O)NC(=O)[C@H](CO)NC(=O)CNC(=O)[C@H](C(C)C)NC(=O)CNC1=O` (CLGVGSCVDFAGCGYAVVCFW-OH; disulfide 1-13, 7-19; lactam N-9), in assay [1], it took 7.2 µM to reach half-maximal inhibition (IC50). In addition, the minimum inhibitory concentration (MIC) is over 32 µg/mL against Bacillus subtilis; 8 µg/mL (≈ 3.75 µM) with Micrococcus luteus; over 32 µg/mL against Escherichia coli; over 32 µg/mL in the assay with Staphylococcus aureus; over 32 µg/mL in the assay with Pseudomonas aeruginosa.
